{
  "source": "paper PMC10996005",
  "about": "“Identification and Development of Cyclic Peptide Inhibitors of Hypoxia Inducible Factors 1 and 2 That Disrupt Hypoxia-Response Signaling in Cancer Cells” (Journal of the American Chemical Society, 2024)",
  "key": {"[1]": {"test_system": "CAIX and VEGF genes in Panc-1 cells", "assay": "qPCR of hypoxia-response genes in Panc-1 cells", "type": "cell-based", "conditions": "hypoxic Panc-1 cells, 50 μM, vs DMSO-treated hypoxic cells", "procedure": "The effect of our lead inhibitor on hypoxia-response signaling was measured by qPCR in cancer cell lines. Cells were treated with either 2 μM of an analogue of the HIF-2-specific inhibitor belzutifan, PT2399 (control), or 50 μM of cyclo-CRLII(4-iodo)F, incubated in hypoxia for […], and the levels of the hypoxia-response genes CAIX([41],[42]) and VEGF([43]) were measured by qPCR. We observed a 51% drop in CAIX transcription and a 43% drop in VEGF transcription in hypoxic MCF-7 (breast cancer) cells treated with 50 μM of cyclo-CRLII(4-iodo)F versus hypoxic MCF-7 cells treated with DMSO only (Figure 6e). […] We also observed a 49% drop in CAIX expression in hypoxic HeLa (cervical cancer) cells treated with cyclo-CRLII(4-iodo)F (Figure S9b). […] We observed a 35% drop in HIF-2-driven VEGF transcription in 786-O cells treated with 50 μM of cyclo-CRLII(4-iodo)F compared to a 50% decrease in 786-O cells treated with PT2399. […]\nRealtime PCR (qPCR) Assay\nCells were plated on 6cm dishes at 80% confluency and incubated overnight under normoxic conditions. The cells were then treated with compound and incubated for 18 hours in hypoxic conditions. After treatment, the cells were washed with PBS and lysed under hypoxic conditions. The total RNA was extracted from the cells using a commercial RNA extraction kit (Fisher Scientific) following the manufacturer's instructions. A commercial reverse transcription kit (Promega) was used to generate cDNA. The MyTaq™ Mix master mix and appropriate primers targeting CAIX and VEGF were used to perform the qPCR reaction using a qPCR machine (Bio-Rad)."}, "[2]": {"molecular_target": "T1, HIF-1α PAS-B domain (Homo sapiens, UniProt Q16665)", "T1 construct": "made in house", "T1 sequence (Q16665 238-349 limits assumed)": "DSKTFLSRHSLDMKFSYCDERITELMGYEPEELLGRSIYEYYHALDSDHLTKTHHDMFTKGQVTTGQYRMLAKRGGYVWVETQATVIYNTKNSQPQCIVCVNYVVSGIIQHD", "assay": "MST binding to the PAS-B domain of HIF-1α", "procedure": "All reagents were purchased from Fisher Scientific or Sigma Aldrich UK unless specified otherwise.\nRestriction enzymes and microbiology reagents were purchased from New England Biolabs Inc., Fisher Scientific (UK) or Promega (UK) and were used as directed by the manufacturer. Primers and oligonucleotides were synthesised by Integrated DNA Technologies (UK). DNA sequencing was carried out by Eurofins MWG Operon (Germany).\nConstruction of the RTHS and SICLOPPS library, screening, purification of recombinant HIF proteins, and the PLA was conducted as previously described in Miranda et al., J. Am. Chem. Soc., 2013, 135(28); […]\nProtein labelling with MST dye\nProtein was buffer exchanged from storage buffer into labelling buffer (0.1 M NaHCO3, pH 8.5) using a PD spintrap G-25 column (GE healthcare). The protein concentration was then adjusted to 20 µM.\nThe commercially sourced MST dye (NanoTemper) was prepared as a 470 µM solution in DMSO, which was then further diluted to 60 µM using labelling buffer. To the protein solution was added an equal volume of dye solution, and the labelling reaction was left for 1 hour in the dark at room temperature.\nThe labelled protein was separated from unreacted dye by elution through a PD minitrap G-25 column (GE healthcare). Labelled protein was then aliquoted and stored at -80 °C. Extent of labelling was measured by the absorbance obtained using the UV-vis mode on a NanoDrop ND-1000 Spectrophotometer (NanoDrop Technologies, USA).\nLabelled protein was thawed on ice and diluted to 50 nM in assay buffer containing 50 mM Tris pH 8.0, 150 mM NaCl, 5% (v/v) glycerol, 1 mM TCEP and 0.05% TWEEN-20. The protein solution was then centrifuged at 12000 rpm for 15 minutes at 4 °C and left on ice. Compounds were prepared and serially diluted in DMSO at 10x assay concentration, before diluting to 2x assay concentration in assay buffer.\nThe 2x compound solutions were then mixed 1:1 (v/v) with 50 nM labelled protein solution and left to incubate for 1 hour at room temperature. Solutions were then loaded into Monolith NT.115 Premium Capillaries (NanoTemper) and placed in the sample tray. MST experiments were carried out"}},
  "note": "Where a SMILES comes first, the peptide text is derived from it. [ ]: non-standard residue; d: D form. Phe(4-I) = N[C@@H](Cc1ccc(I)cc1)C(=O)O",
  "data": [
    {"molecule": "CC[C@H](C)[C@@H]1NC(=O)[C@H](CC(C)C)NC(=O)[C@H](CCCNC(=N)N)NC(=O)[C@H](CS)NC(=O)[C@H](Cc2ccc(I)cc2)NC(=O)[C@H]([C@@H](C)CC)NC1=O", "note": "[cyclo-CRLII(4-iodo)F] (cyclo(CRLII[Phe(4-I)]))", "values": [
      {"measurement": "drop in CAIX expression", "setting": "[1]", "value": 41, "unit": "%"},
      {"measurement": "drop in VEGF transcription", "setting": "[1]", "value": 26, "unit": "%"},
      {"measurement": "improvement in HIF-1α binding affinity compared to the parent cyclic peptide cyclo-CRLIIF", "setting": "[2]; MST KD ratio", "value": 4.6, "unit": "fold"},
      {"measurement": "Kd", "setting": "[2]; MST, mean ± SEM, n = 2 (n = 1 for most C1 analogues, n = 3 in Figure S2), read-out: KD for HIF-1α PAS-B", "value": "800 ± 200", "unit": "nM"}
    ]}
  ]
}
